# From patent US8097620B2, “Diazaquinolones that inhibit prolyl hydroxylase activity” (Amgen Inc., priority 2007, dated 2012)
# Biological target: HIF PHD2 (Homo sapiens, UniProt Q9GZT9)
# Experiment: PHD2 inhibition assay (TR-FRET, VCB-Eu detection of hydroxylated P564-HIF1α peptide)
# Assay type: biochemical
# Conditions: 2 nM PHD2, 100 nM P564-HIF1α peptide, 0.25 μM 2-oxoglutarate, 100 μM FeCl2, 2 mM ascorbic acid, pH 6
# Experimental: Inhibition of HIF PHD2 activity was quantified utilizing the TR-FRET technology. HIF PHD2 catalyzes a hydroxyl modification on the proline residue of the P564-HIF1α peptide substrate (Biotin-[…] (SEQ ID NO: 7)) resulting in recognition and binding of the europylated Von Hippel-Lindau protein (pVHL), elongin B and elongin C heterotrimeric (VCB-Eu) complex.
# The PHD2 inhibition assay was executed by addition of freshly dissolved FeCl2 to 178.57 μM (100 μM final concentration) in PHD2 Reaction Buffer containing 30 mM MES, pH 6, 10 mM NaCl, 0.25% Brij-35, 0.01% BSA, and 1% DMSO. 28 μL of the iron solution and 2 μL of inhibitor compounds serially diluted in 100% DMSO (5% DMSO final) were added to black polypropylene 96-well microtiter plates. To that, 10 μL of 10 nM PHD2 (2 nM final) was added to all wells of the plate except for the 8 wells of column 12 (LO control), and allowed to incubate at room temperature on the shaker for one hour. Column 6 was the HI control containing PHD2 enzyme and 5% DMSO vehicle, but no inhibitor compound. To initiate the PHD2 enzymatic reaction, 10 μL of a solution containing 500 nM P564-HIF1α peptide (100 nM final), 10 mM ascorbic acid (2 mM final), and 1.25 μM 2-oxoglutarate (α-ketoglutarate; 0.25 μM final) in PHD2 Reaction Buffer was added to all wells of the plate and allowed to incubate on the shaker at room temperature for one hour.
# The reaction was terminated by addition of 25 μL TR-FRET Buffer (50 mM TRIS-HCl, pH 9, 100 mM NaCl, 0.05% BSA, and 0.5% Tween-20) containing 150 mM succinate (product inhibitor; 50 mM final), 75 nM streptavidin-APC (25 nM final), and 7.5 nM VCB-Eu (2.5 nM final). The TR-FRET detection reagents were placed on a shaker for 1 hour to reach binding equilibrium before reading on the Discovery platform (PerkinElmer). Europium is excited at 315 nm and phosphoresces at 615 nm with a large Stoke's shift. APC, in turn, emits at 655 nm upon excitation at 615 nm. The TR-FRET signal is measured as the ratio of the APC 655 nm signal divided by the internal europium reference 615 nm emission signal.
# The POC (percentage of control) was determined by comparing the signal from hydroxylated peptide substrate in the enzyme reaction containing inhibitor compound with that from PHD2 enzyme with DMSO vehicle alone (HI control), and no enzyme (LO control). POC was calculated using the formula: % control (POC)=(cpd−average LO)/(average HI−average LO)*100. Data (consisting of POC and inhibitor concentration in μM) was fitted to a 4-parameter equation (y=A+((B−A)/(1+((x/C)^D))), where A is the minimum y (POC) value, B is the maximum y (POC), C is the x (cpd concentration) at the point of inflection and D is the slope factor) using a Levenburg-Marquardt non-linear regression algorithm.
# Chain of HIF PHD2 (Q9GZT9 whole entry): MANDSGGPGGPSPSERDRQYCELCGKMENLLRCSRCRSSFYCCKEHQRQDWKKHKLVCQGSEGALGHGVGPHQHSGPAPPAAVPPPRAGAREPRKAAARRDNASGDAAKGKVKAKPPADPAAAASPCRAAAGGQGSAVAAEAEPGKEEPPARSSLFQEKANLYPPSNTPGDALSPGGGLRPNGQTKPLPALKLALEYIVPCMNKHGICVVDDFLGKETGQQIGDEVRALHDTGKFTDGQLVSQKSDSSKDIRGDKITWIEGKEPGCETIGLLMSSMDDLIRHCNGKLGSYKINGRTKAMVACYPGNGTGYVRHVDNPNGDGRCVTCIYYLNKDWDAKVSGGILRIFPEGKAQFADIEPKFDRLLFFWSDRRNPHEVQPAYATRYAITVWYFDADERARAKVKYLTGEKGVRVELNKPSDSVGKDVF
row,SMILES,IC50 [nM]
1,"Cn1c(=O)c(C(=O)NCC(=O)O)c(O)c2cnc(-c3ccccc3N3CCOCC3)nc21 [Example 28, 2-(5-hydroxy-8-methyl-2-(2-morpholinophenyl)-7-oxo-7,8-dihydropyrido[2,3-d]pyrimidine-6-carboxamido)acetic acid]",2.9
2,"Cn1c(=O)c(C(=O)NCC(=O)O)c(O)c2cnc(-c3ccc(N4CCOCC4)cc3)nc21 [Example 29, 2-(5-hydroxy-8-methyl-2-(4-morpholinophenyl)-7-oxo-7,8-dihydropyrido[2,3-d]pyrimidine-6-carboxamido)acetic acid]",3.7
3,"Cn1c(=O)c(C(=O)NCC(=O)O)c(O)c2cnc(-c3ccoc3)nc21 [Example 30, 2-(2-(furan-3-yl)-5-hydroxy-8-methyl-7-oxo-7,8-dihydropyrido[2,3-d]pyrimidine-6-carboxamido)acetic acid]",5.3
4,"COc1ccccc1-c1ncc2c(O)c(C(=O)NCC(=O)O)c(=O)n(C)c2n1 [Example 31, 2-(5-hydroxy-2-(2-methoxyphenyl)-8-methyl-7-oxo-7,8-dihydropyrido[2,3-d]pyrimidine-6-carboxamido)acetic acid]",2.4
5,"Cn1c(=O)c(C(=O)NCC(=O)O)c(O)c2cnc(-c3ccc(N4CCCCC4)cc3)nc21 [Example 32, 2-(5-hydroxy-8-methyl-7-oxo-2-(4-(piperidin-1-yl)phenyl)-7,8-dihydropyrido[2,3-d]pyrimidine-6-carboxamido)acetic acid]",5.3
6,"COc1ccc(-c2ncc3c(O)c(C(=O)NCC(=O)O)c(=O)n(C)c3n2)cc1 [Example 33, 2-(5-hydroxy-2-(4-methoxyphenyl)-8-methyl-7-oxo-7,8-dihydropyrido[2,3-d]pyrimidine-6-carboxamido)acetic acid]",6.4
7,"COc1cccc(-c2ncc3c(O)c(C(=O)NCC(=O)O)c(=O)n(C)c3n2)c1 [Example 34, 2-(5-hydroxy-2-(3-methoxyphenyl)-8-methyl-7-oxo-7,8-dihydropyrido[2,3-d]pyrimidine-6-carboxamido)acetic acid]",10
8,"Cn1c(=O)c(C(=O)NCC(=O)O)c(O)c2cnc(-c3cccc4ncccc34)nc21 [Example 35, 2-(5-hydroxy-8-methyl-7-oxo-2-(quinolin-5-yl)-7,8-dihydropyrido[2,3-d]pyrimidine-6-carboxamido)acetic acid]",2.4
9,"Cn1c(=O)c(C(=O)NCC(=O)O)c(O)c2cnc(-c3cc4ccccc4s3)nc21 [Example 36, 2-(2-(benzo[b]thiophen-2-yl)-5-hydroxy-8-methyl-7-oxo-7,8-dihydropyrido[2,3-d]pyrimidine-6-carboxamido)acetic acid]",7.4
10,"Cc1cccc(-c2ncc3c(O)c(C(=O)NCC(=O)O)c(=O)n(C)c3n2)c1 [Example 37, 2-(5-hydroxy-8-methyl-7-oxo-2-m-tolyl-7,8-dihydropyrido[2,3-d]pyrimidine-6-carboxamido)acetic acid]",8.8
11,"Cn1c(=O)c(C(=O)NCC(=O)O)c(O)c2cnc(-c3ccco3)nc21 [Example 38, 2-(2-(furan-2-yl)-5-hydroxy-8-methyl-7-oxo-7,8-dihydropyrido[2,3-d]pyrimidine-6-carboxamido)acetic acid]",2.5
12,"Cn1c(=O)c(C(=O)NCC(=O)O)c(O)c2cnc(-c3ccc(Cl)cc3)nc21 [Example 39, 2-(2-(4-chlorophenyl)-5-hydroxy-8-methyl-7-oxo-7,8-dihydropyrido[2,3-d]pyrimidine-6-carboxamido)acetic acid]",7.8
13,"Cn1c(=O)c(C(=O)NCC(=O)O)c(O)c2cnc(-c3csc4ccccc34)nc21 [Example 40, 2-(2-(benzo[b]thiophen-3-yl)-5-hydroxy-8-methyl-7-oxo-7,8-dihydropyrido[2,3-d]pyrimidine-6-carboxamido)acetic acid]",13
14,"Cn1c(=O)c(C(=O)NCC(=O)O)c(O)c2cnc(-c3ccc4ccccc4c3)nc21 [Example 41, 2-(5-hydroxy-8-methyl-2-(naphthalen-2-yl)-7-oxo-7,8-dihydropyrido[2,3-d]pyrimidine-6-carboxamido)acetic acid]",9.4
15,"Cn1c(=O)c(C(=O)NCC(=O)O)c(O)c2cnc(-c3cc4ccccc4[nH]3)nc21 [Example 42, 2-(5-hydroxy-2-(1H-indol-2-yl)-8-methyl-7-oxo-7,8-dihydropyrido[2,3-d]pyrimidine-6-carboxamido)acetic acid]",3.1
16,"Cn1c(=O)c(C(=O)NCC(=O)O)c(O)c2cnc(-c3cccc(Cl)c3)nc21 [Example 43, 2-(2-(3-chlorophenyl)-5-hydroxy-8-methyl-7-oxo-7,8-dihydropyrido[2,3-d]pyrimidine-6-carboxamido)acetic acid]",7.9
17,"Cn1ccc2cc(-c3ncc4c(O)c(C(=O)NCC(=O)O)c(=O)n(C)c4n3)ccc21 [Example 44, 2-(5-hydroxy-8-methyl-2-(1-methyl-1H-indol-5-yl)-7-oxo-7,8-dihydropyrido[2,3-d]pyrimidine-6-carboxamido)acetic acid]",7.8

# Second part, the molecule after the results:
row,IC50 [nM],SMILES
1,2,"Cn1c(=O)c(C(=O)NCC(=O)O)c(O)c2cnc(-c3ccnc4ccccc34)nc21 [Example 45, 2-(5-hydroxy-8-methyl-7-oxo-2-(quinolin-4-yl)-7,8-dihydropyrido[2,3-d]pyrimidine-6-carboxamido)acetic acid]"
2,2.3,"Cn1c(=O)c(C(=O)NCC(=O)O)c(O)c2cnc(-c3cccc4ccccc34)nc21 [Example 46, 2-(5-hydroxy-8-methyl-2-(naphthalen-1-yl)-7-oxo-7,8-dihydropyrido[2,3-d]pyrimidine-6-carboxamido)acetic acid]"
3,6.7,"Cc1ccc(-c2ncc3c(O)c(C(=O)NCC(=O)O)c(=O)n(C)c3n2)cc1 [Example 47, 2-(5-hydroxy-8-methyl-7-oxo-2-p-tolyl-7,8-dihydropyrido[2,3-d]pyrimidine-6-carboxamido)acetic acid]"
4,7.1,"Cn1c(=O)c(C(=O)NCC(=O)O)c(O)c2cnc(-c3ccc4occc4c3)nc21 [Example 48, 2-(2-(benzofuran-5-yl)-5-hydroxy-8-methyl-7-oxo-7,8-dihydropyrido[2,3-d]pyrimidine-6-carboxamido)acetic acid]"
5,3.2,"Cn1c(=O)c(C(=O)NCC(=O)O)c(O)c2cnc(-c3cnc4ccccc4c3)nc21 [Example 49, 2-(5-hydroxy-8-methyl-7-oxo-2-(quinolin-3-yl)-7,8-dihydropyrido[2,3-d]pyrimidine-6-carboxamido)acetic acid]"
6,3.6,"Cc1ccccc1-c1ncc2c(O)c(C(=O)NCC(=O)O)c(=O)n(C)c2n1 [Example 50, 2-(5-hydroxy-8-methyl-7-oxo-2-o-tolyl-7,8-dihydropyrido[2,3-d]pyrimidine-6-carboxamido)acetic acid]"
7,9.4,"Cn1c(=O)c(C(=O)NCC(=O)O)c(O)c2cnc(-c3ccc4sccc4c3)nc21 [Example 51, 2-(2-(benzo[b]thiophen-5-yl)-5-hydroxy-8-methyl-7-oxo-7,8-dihydropyrido[2,3-d]pyrimidine-6-carboxamido)acetic acid]"
8,4.1,"Cn1c(=O)c(C(=O)NCC(=O)O)c(O)c2cnc(-c3ccc(C#N)cc3)nc21 [Example 52, 2-(2-(4-cyanophenyl)-5-hydroxy-8-methyl-7-oxo-7,8-dihydropyrido[2,3-d]pyrimidine-6-carboxamido)acetic acid]"
9,5,"Cn1c(=O)c(C(=O)NCC(=O)O)c(O)c2cnc(-c3cccc(N4CCOCC4)c3)nc21 [Example 53, 2-(5-hydroxy-8-methyl-2-(3-morpholinophenyl)-7-oxo-7,8-dihydropyrido[2,3-d]pyrimidine-6-carboxamido)acetic acid]"
10,4,"Cn1c(=O)c(C(=O)NCC(=O)O)c(O)c2cnc(-c3ccsc3)nc21 [Example 54, 2-(5-hydroxy-8-methyl-7-oxo-2-(thiophen-3-yl)-7,8-dihydropyrido[2,3-d]pyrimidine-6-carboxamido)acetic acid]"
11,4.45,"Cn1c(=O)c(C(=O)NCC(=O)O)c(O)c2cnc(-c3cccnc3)nc21 [Example 55, 2-(5-hydroxy-8-methyl-7-oxo-2-(pyridin-3-yl)-7,8-dihydropyrido[2,3-d]pyrimidine-6-carboxamido)acetic acid]"
